# Laboratory results: PubChem BioAssay AID212 (DTP/NCI, 2004)
# “And” between values parts separate entries of the source, which are not always exact repeats. Equal entries are not always repeated. Results filed as inconclusive are left out.
# Test system: BDF1 mice, colon carcinoma 38 sc, T/C %
# Test: NCI In Vivo Anticancer Drug Screen. Data for tumor model Colon Carcinoma 38 (subcutaneous) in B6D2F1 (BDF1) mice
# Summary of the method: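 Compound antitumor activity was assessed in mice carrying transplantable tumors. Survival or tumor size was recorded, and each value is the treated-group measurement divided by that of the vehicle-treated control group.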
# [1] = endpoint: median tumor weight (est.), dose: 50.0 mg/kg/injection, schedule: Q07DX002 (ip), vehicle: Klucel (hydroxypropylcellulose) (HPC), higher = larger tumour
# [2] = endpoint: median tumor weight (est.), dose: 100.0 mg/kg/injection, schedule: Q07DX002 (ip), vehicle: Klucel (hydroxypropylcellulose) (HPC), higher = larger tumour
# [3] = endpoint: median tumor weight (est.), dose: 400.0 mg/kg/injection, schedule: Q07DX002 (ip), vehicle: Klucel (hydroxypropylcellulose) (HPC), higher = larger tumour
# [4] = endpoint: median tumor weight (est.), dose: 50.0 mg/kg/injection, schedule: Q07DX002 (ip), vehicle: saline, higher = larger tumour
# [5] = endpoint: median tumor weight (est.), dose: 100.0 mg/kg/injection, schedule: Q07DX002 (ip), vehicle: saline, higher = larger tumour
# [6] = endpoint: median tumor weight (est.), dose: 200.0 mg/kg/injection, schedule: Q07DX002 (ip), vehicle: saline, higher = larger tumour
# [7] = endpoint: median tumor weight (est.), dose: 25.0 mg/kg/injection, schedule: Q07DX002 (ip), vehicle: saline with Tween-80, higher = larger tumour
# [8] = endpoint: median tumor weight (est.), dose: 50.0 mg/kg/injection, schedule: Q07DX002 (ip), vehicle: saline with Tween-80, higher = larger tumour
# [9] = endpoint: median tumor weight (est.), dose: 100.0 mg/kg/injection, schedule: Q07DX002 (ip), vehicle: saline with Tween-80, higher = larger tumour
# [10] = endpoint: median tumor weight (est.), dose: 200.0 mg/kg/injection, schedule: Q07DX002 (ip), vehicle: saline with Tween-80, higher = larger tumour
structure (smiles),measurement,setting,value
O=C(CCBr)N1CCN(C(=O)CCBr)CC1,T/C,"endpoint: median tumor weight (est.), dose: 10.0 mg/kg/injection, schedule: Q07DX002 (ip), vehicle: saline with Tween-80, higher = larger tumour",90 % of control
same,T/C,"endpoint: median tumor weight (est.), dose: 10.0 mg/kg/injection, schedule: Q07DX002 (ip), vehicle: water, higher = larger tumour",172 % of control
same,T/C,"endpoint: median tumor weight (est.), dose: 20.0 mg/kg/injection, schedule: Q07DX002 (ip), vehicle: saline with Tween-80, higher = larger tumour",111 % of control
same,T/C,"endpoint: median tumor weight (est.), dose: 20.0 mg/kg/injection, schedule: Q07DX002 (ip), vehicle: water, higher = larger tumour",109 % of control
same,T/C,"endpoint: median tumor weight (est.), dose: 40.0 mg/kg/injection, schedule: Q07DX002 (ip), vehicle: saline with Tween-80, higher = larger tumour",60 % of control
same,T/C,"endpoint: median tumor weight (est.), dose: 40.0 mg/kg/injection, schedule: Q07DX002 (ip), vehicle: water, higher = larger tumour",157 % of control
same,T/C,"endpoint: median tumor weight (est.), dose: 80.0 mg/kg/injection, schedule: Q07DX002 (ip), vehicle: saline with Tween-80, higher = larger tumour",69 % of control and 78 % of control
same,T/C,"endpoint: median tumor weight (est.), dose: 80.0 mg/kg/injection, schedule: Q07DX002 (ip), vehicle: water, higher = larger tumour",120 % of control
same,T/C,"endpoint: median tumor weight (est.), dose: 160.0 mg/kg/injection, schedule: Q07DX002 (ip), vehicle: water, higher = larger tumour",91 % of control
same,T/C,"endpoint: median tumor weight (est.), dose: 320.0 mg/kg/injection, schedule: Q07DX002 (ip), vehicle: water, higher = larger tumour",67 % of control
Cn1c(N)c(C(=O)/C=C/c2ccccc2)c(=O)n(C)c1=O,T/C,"endpoint: median tumor weight (est.), dose: 25.0 mg/kg/injection, schedule: Q07DX002 (ip), vehicle: Klucel (hydroxypropylcellulose) (HPC), higher = larger tumour",114 % of control
same,T/C,[1],112 % of control
same,T/C,[2],109 % of control
same,T/C,[3],123 % of control
Cc1ccccc1CN1C2=NCCN2C(=O)C2=C1CCN(S(=O)(=O)c1ccc(Cl)c(S(N)(=O)=O)c1)C2,T/C,[4],97 % of control
same,T/C,[5],86 % of control
same,T/C,[6],91 % of control
same,T/C,"endpoint: median tumor weight (est.), dose: 400.0 mg/kg/injection, schedule: Q07DX002 (ip), vehicle: saline, higher = larger tumour",96 % of control
same,T/C,"endpoint: median tumor weight (est.), dose: 450.0 mg/kg/injection, schedule: Q07DX002 (ip), vehicle: saline, higher = larger tumour",84 % of control
same,T/C,"endpoint: median tumor weight (est.), dose: 900.0 mg/kg/injection, schedule: Q07DX002 (ip), vehicle: saline, higher = larger tumour",100 % of control
same,T/C,"endpoint: median tumor weight (est.), dose: 1800.0 mg/kg/injection, schedule: Q07DX002 (ip), vehicle: saline, higher = larger tumour",110 % of control
Cc1ccc(NC(=O)Oc2ccc(Br)cc2Br)c([N+](=O)[O-])c1,T/C,[7],111 % of control and 102 % of control
same,T/C,[8],51 % of control and 62 % of control
same,T/C,[9],86 % of control and 94 % of control
same,T/C,[10],65 % of control and 79 % of control
OC1CCCC2CCC[N-]C12.OC1CCCC2CCC[N-]C12.[Mn+2] (stereo unspecified),T/C,"endpoint: median tumor weight (est.), dose: 12.5 mg/kg/injection, schedule: Q07DX002 (ip), vehicle: Klucel (hydroxypropylcellulose) (HPC), higher = larger tumour",76 % of control
same,T/C,[1],91 % of control
same,T/C,[2],63 % of control and 84 % of control
same,T/C,"endpoint: median tumor weight (est.), dose: 200.0 mg/kg/injection, schedule: Q07DX002 (ip), vehicle: Klucel (hydroxypropylcellulose) (HPC), higher = larger tumour",86 % of control and 98 % of control
same,T/C,[3],69 % of control
CS(=O)(=O)OCCCCOS(C)(=O)=O,T/C,"endpoint: median tumor weight (est.), dose: 32.0 mg/kg/injection, schedule: Q01DX005 (ip), vehicle: saline with Tween-80, higher = larger tumour",15 % of control
C/C=C(\C)C(=O)OC1C(C)=C2C(C1OC(=O)CCCC)C(C)(OC(C)=O)CC(OC(=O)CCCC)C1(O)C2OC(=O)C1(C)O (stereo unspecified),T/C,"endpoint: median tumor weight (est.), dose: 1.68 mg/kg/injection, schedule: Q07DX002 (ip), vehicle: Klucel (hydroxypropylcellulose) (HPC), higher = larger tumour",54 % of control
same,T/C,"endpoint: median tumor weight (est.), dose: 3.37 mg/kg/injection, schedule: Q07DX002 (ip), vehicle: Klucel (hydroxypropylcellulose) (HPC), higher = larger tumour",87 % of control
same,T/C,"endpoint: median tumor weight (est.), dose: 6.75 mg/kg/injection, schedule: Q07DX002 (ip), vehicle: Klucel (hydroxypropylcellulose) (HPC), higher = larger tumour",61 % of control
same,T/C,"endpoint: median tumor weight (est.), dose: 13.5 mg/kg/injection, schedule: Q07DX002 (ip), vehicle: Klucel (hydroxypropylcellulose) (HPC), higher = larger tumour",105 % of control
COc1cc(C(=O)N/N=C/c2cccc([N+](=O)[O-])c2)cc(OC)c1OC,T/C,[7],93 % of control
same,T/C,[8],124 % of control
same,T/C,[9],107 % of control
same,T/C,[10],101 % of control
CN(N=O)C(=O)N[C@@H](C=O)[C@@H](O)[C@H](O)[C@H](O)CO,T/C,"endpoint: median survival time, dose: 23.0 mg/kg/injection, schedule: Q01DX010 (sc), vehicle: other, higher = longer survival",110 % of control
same,T/C,"endpoint: median survival time, dose: 37.0 mg/kg/injection, schedule: Q01DX010 (sc), vehicle: other, higher = longer survival",100 % of control
same,T/C,"endpoint: median survival time, dose: 60.0 mg/kg/injection, schedule: Q01DX010 (sc), vehicle: other, higher = longer survival",115 % of control
same,T/C,"endpoint: median tumor weight (est.), dose: 12.5 mg/kg/injection, schedule: Q07DX003 (ip), vehicle: other, higher = larger tumour",78 % of control
same,T/C,"endpoint: median tumor weight (est.), dose: 25.0 mg/kg/injection, schedule: Q07DX003 (ip), vehicle: other, higher = larger tumour",54 % of control
same,T/C,"endpoint: median tumor weight (est.), dose: 50.0 mg/kg/injection, schedule: Q07DX003 (ip), vehicle: other, higher = larger tumour",66 % of control
same,T/C,"endpoint: median tumor weight (est.), dose: 100.0 mg/kg/injection, schedule: Q07DX003 (ip), vehicle: other, higher = larger tumour",56 % of control
same,T/C,"endpoint: median tumor weight (est.), dose: 200.0 mg/kg/injection, schedule: Q07DX003 (ip), vehicle: other, higher = larger tumour",34 % of control
CC12CCC3C(CCC4CC(OC(=O)Cc5ccc(N(CCCl)CCCl)cc5)CCC43C)C1CCC(=O)N2 (stereo unspecified),T/C,"endpoint: median tumor weight (est.), dose: 1.5 mg/kg/injection, schedule: Q07DX002 (ip), vehicle: saline with Tween-80, higher = larger tumour",121 % of control
same,T/C,"endpoint: median tumor weight (est.), dose: 3.0 mg/kg/injection, schedule: Q07DX002 (ip), vehicle: saline with Tween-80, higher = larger tumour",77 % of control and 91 % of control
same,T/C,"endpoint: median tumor weight (est.), dose: 6.0 mg/kg/injection, schedule: Q07DX002 (ip), vehicle: saline with Tween-80, higher = larger tumour",47 % of control and 48 % of control
same,T/C,"endpoint: median tumor weight (est.), dose: 24.0 mg/kg/injection, schedule: Q07DX002 (ip), vehicle: saline with Tween-80, higher = larger tumour",27 % of control and 33 % of control
BrCC[Se]c1ccccc1,T/C,"endpoint: median tumor weight (est.), dose: 6.25 mg/kg/injection, schedule: Q07DX002 (ip), vehicle: saline with Tween-80, higher = larger tumour",158 % of control and 177 % of control
same,T/C,"endpoint: median tumor weight (est.), dose: 12.5 mg/kg/injection, schedule: Q07DX002 (ip), vehicle: saline with Tween-80, higher = larger tumour",100 % of control and 104 % of control
same,T/C,[8],107 % of control
same,T/C,[10],178 % of control
CNc1cccnc1/C=N/NC(N)=S,T/C,[7],119 % of control
same,T/C,[8],95 % of control
same,T/C,[10],45 % of control and 66 % of control
same,T/C,"endpoint: median tumor weight (est.), dose: 400.0 mg/kg/injection, schedule: Q07DX002 (ip), vehicle: saline with Tween-80, higher = larger tumour",32 % of control and 33 % of control
O=C(O)CC(NC(=O)CP(=O)(O)O)C(=O)O.[NH-]C1CCCCC1[NH-].[Pt+2] (stereo unspecified),T/C,"endpoint: median tumor weight (est.), dose: 1.56 mg/kg/injection, schedule: Q07DX002 (ip), vehicle: dextrose, higher = larger tumour",103 % of control
same,T/C,"endpoint: median tumor weight (est.), dose: 3.12 mg/kg/injection, schedule: Q07DX002 (ip), vehicle: dextrose, higher = larger tumour",77 % of control and 87 % of control
same,T/C,"endpoint: median tumor weight (est.), dose: 6.25 mg/kg/injection, schedule: Q07DX002 (ip), vehicle: dextrose, higher = larger tumour",85 % of control and 90 % of control
same,T/C,"endpoint: median tumor weight (est.), dose: 12.5 mg/kg/injection, schedule: Q07DX002 (ip), vehicle: dextrose, higher = larger tumour",64 % of control and 65 % of control
same,T/C,"endpoint: median tumor weight (est.), dose: 25.0 mg/kg/injection, schedule: Q07DX002 (ip), vehicle: dextrose, higher = larger tumour",44 % of control and 54 % of control
same,T/C,"endpoint: median tumor weight (est.), dose: 50.0 mg/kg/injection, schedule: Q07DX002 (ip), vehicle: dextrose, higher = larger tumour",14 % of control
Cn1/c2cc/c1=C(\c1ccc(S(=O)(=O)O)cc1)c1ccc([n-]1)/C(c1ccc(S(=O)(=O)O)cc1)=c1/cc/c([nH]1)=C(\c1ccc(S(=O)(=O)O)cc1)c1ccc([n-]1)/C=2c1ccc(S(=O)(=O)O)cc1.O.O=S(=O)(O)C(F)(F)F.[Cu+2],T/C,"endpoint: median tumor weight (est.), dose: 12.5 mg/kg/injection, schedule: Q07DX002 (ip), vehicle: saline, higher = larger tumour",79 % of control
same,T/C,"endpoint: median tumor weight (est.), dose: 25.0 mg/kg/injection, schedule: Q07DX002 (ip), vehicle: saline, higher = larger tumour",70 % of control
same,T/C,[4],77 % of control
same,T/C,[5],89 % of control
same,T/C,[6],80 % of control
CCOC(C)C(/C=N/NC(N)=S)=NNC(N)=S (stereo unspecified),T/C,"endpoint: median tumor weight (est.), dose: 12.5 mg/kg/injection, schedule: Q07DX003 (ip), vehicle: saline with Tween-80, higher = larger tumour",111 % of control
same,T/C,"endpoint: median tumor weight (est.), dose: 25.0 mg/kg/injection, schedule: Q07DX003 (ip), vehicle: saline with Tween-80, higher = larger tumour",61 % of control
same,T/C,"endpoint: median tumor weight (est.), dose: 50.0 mg/kg/injection, schedule: Q07DX003 (ip), vehicle: saline with Tween-80, higher = larger tumour",99 % of control
same,T/C,"endpoint: median tumor weight (est.), dose: 100.0 mg/kg/injection, schedule: Q07DX003 (ip), vehicle: saline with Tween-80, higher = larger tumour",155 % of control
same,T/C,"endpoint: median tumor weight (est.), dose: 200.0 mg/kg/injection, schedule: Q07DX003 (ip), vehicle: saline with Tween-80, higher = larger tumour",73 % of control
same,T/C,"endpoint: median tumor weight (est.), dose: 400.0 mg/kg/injection, schedule: Q07DX003 (ip), vehicle: saline with Tween-80, higher = larger tumour",66 % of control
